This passage reports Ki results from patent US8039623B2, “Inhibitors of serine proteases, particularly HCV NS3-NS4A protease” (Vertex Pharmaceuticals Incorporated, priority 2003, dated 2011).

A value given as a limit tells only on which side of the number the result lay.

For the test, the target named is HCV NS3-NS4A protease (tNS3 with KK4A) (Hepatitis C virus genotype 1a, UniProt P27958). The test can be described thus: HCV Enzyme Assay Protocol (HPLC microbore separation of 5AB substrate and products). Format: biochemical. The following applies: 25 nM tNS3, 25 μM KK4A, 25 μM 5AB substrate, 20 min at 30° C.; read-out: Ki range. As for the experimental part: HCV Enzyme Assay Protocol
Sequence of HCV NS3-NS4A protease (tNS3 with KK4A) (P27958 1658-1711): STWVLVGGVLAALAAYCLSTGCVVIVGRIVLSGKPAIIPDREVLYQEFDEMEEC
Sequence of HCV NS3-NS4A protease (tNS3 with KK4A) (P27958 1027-1208): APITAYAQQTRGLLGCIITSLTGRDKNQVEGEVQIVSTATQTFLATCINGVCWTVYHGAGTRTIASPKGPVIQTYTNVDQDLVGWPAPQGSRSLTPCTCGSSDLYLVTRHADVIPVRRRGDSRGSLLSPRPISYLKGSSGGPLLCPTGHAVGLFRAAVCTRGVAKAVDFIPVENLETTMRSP
HPLC Microbore method for separation of 5AB substrate and products
• NH2-Glu-Asp-Val-Val-(alpha)Abu-Cys-Ser-Met-Ser-Tyr-COOH
A stock solution of 20 mM 5AB (or concentration of your choice) was made in DMSO w/0.2M DTT. This was stored in aliquots at −20° C.
Buffer: 50 mM HEPES, pH 7.8; 20% glycerol; 100 mM NaCl
Total assay volume was 100 μL
The buffer, KK4A, DTT, and tNS3 were combined; distributed 78 μL each into wells of 96 well plate. This was incubated at 30° C. for ˜5-10 min.
2.5 μL of appropriate concentration of test compound was dissolved in DMSO (DMSO only for control) and added to each well. This was incubated at room temperature for 15 min.
Initiated reaction by addition of 20 μL of 250 μM 5 AB substrate (25 μM concentration is equivalent or slightly lower than the Km for 5 AB).
Incubated for 20 min at 30° C.
Terminated reaction by addition of 25 μL of 10% TFA
Transferred 120 μL aliquots to HPLC vials
Separated SMSY product from substrate and KK4A by the following method:
Microbore Separation Method:
Instrumentation: Agilent 1100
• Degasser G1322A • Binary pump G1312A • Autosampler G1313A • Column thermostated chamber G1316A • Diode array detector G1315A Column • Phenonex Jupiter; 5 micron C18; 300 angstroms; 150×2 mm; P/O • 00F-4053-B0 • Column thermostat: 40 C • Injection volume: 100 μL • Solvent A=HPLC grade water+0.1% TFA • Solvent B=HPLC grade acetonitrile+0.1% TFA
• Stop time: 17 min • Post-run time: 10 min.
In the case of `CCC[C@H](NC(=O)[C@@H]1CC2(CN1C(=O)[C@@H](NC(=O)[C@@H](NC(=O)c1[nH]c(C)c(C)c1C(C)=O)C1CCCCC1)C(C)(C)C)SCCCS2)C(=O)NS(=O)(=O)c1ccccc1` [Compound 3], the Ki lay in the range of 1 to 5 µM.

For the molecule `CCC[C@H](NC(=O)[C@@H]1CC2(CN1C(=O)[C@@H](NC(=O)[C@@H](NC(=O)c1cnccn1)C1CCCCC1)C(C)(C)C)SCCCS2)C(=O)NS(=O)(=O)c1ccccc1` [Compound 1], the Ki was over 5 µM.

Take `CCC[C@H](NC(=O)[C@@H]1C[C@@H](Oc2ccc(Cl)cn2)CN1C(=O)[C@@H](NC(=O)[C@@H](NC(=O)c1cnccn1)C1CCCCC1)C(C)(C)C)C(=O)NS(=O)(=O)c1ccccc1` [Compound 2]: the inhibition constant Ki is over 5 µM.
